Assay results from patent US12285393B2, “Roles of modulators of intersectin-Cdc42 signaling in Alzheimer's disease” (priority 2017, dated 2025).

What was measured:
WT and 3×Tg-AD mice = assay: Eyeblink classical conditioning test; type: in vivo
Source text: Six-month-old C57/BL6 (WT) and 3×Tg-AD mice with an average weight of 24 g from Jackson Laboratory (Bar Harbor, Maine, United States of America) were used. The 3×Tg-AD mice in hybrid 129/C57BL/6 background contain two mutant human transgenes, hAPP harboring Swedish mutation (hAPPswe) and mutant htau (htau301L) under a neuron-specific promoter, and also contain the knock-in mutant presenilin 1 (PS1M146V). See Oddo et al. (2003) Neuron 39:409-421). 3×Tg-AD mice were received from Jackson Laboratory as Psen1 B6:129-Psen1<tmMpm>Tg(APPSwetauP301L)1Lfa/J and the wild type control as SF2: (B6129SF1/J+p+Tyr-c+Mgf-SIJ)F2. All mice were subjected to two weeks of training for familiarizing behavioral test procedures. Subsequently, mice were assayed to establish a baseline of behavior tests before ZCL compound treatment. Then, mice were separated into three treatment groups (Control, ZCL278 and ZCL279). Both ZCL278 and ZCL279 were dissolved in sesame oil with 5% DMSO and each treatment was administrated via an intraperitoneal injection. All treatment groups of mice were treated once a week. Control group was treated with 130 μl 5% DMSO in sesame oil. ZCL278 and ZCL279 groups were treated with 20 μg/g ZCL 278 or ZCL 279 in sesame oil (5% DMSO). On the day following drug treatment, all mice were subjected to a burrowing test, nesting test and contact avoidance evaluations. On the 4th week of experiment, selected female mice from each group were submitted to Morris water maze test and eye blink test.
Eye blinking test: Eyeblink classical conditioning (ECC) behavior testing was performed based on a method described previously. See Rufer et al., PLoS One, 2012, 7(10):e47499; and Thomas & Tran, Hippocampus, 2012, 22:619-630. Briefly, the day after ZCL compound treatment, two stainless steel recording electrodes (3T, Medwire, Mount Vernon, New York, United States of America) were implanted in the left orbicularis oculi muscle in all mice, and a bipolar stimulating electrode adjacent to the left eye. […]

Swiss 3T3 cells = assay: Immunofluorescence, cell morphology and bradykinin-mediated activation; type: cell-based; details: for changes to cell morphology: after 4 h of treatment, more drastic after six hours
Procedure: Immunofluorescence: Serum-starved Swiss 3T3 cells were pretreated with compound for 2 h before the addition of bradykinin (100 ng/mL) for 20 min. Cells were fixed in 4% paraformaldehyde for 15 min at RT and stored in PBS. Fixed cells were treated with 0.5% Triton for 30 min at RT, 100 mM Glycine 30 min at RT, and 10% BSA for 30 min at 37° C. Primary antibody for GM130 (1:1000, BD Biosciences, Franklin Lakes, New Jersey, United States of America) was used to probe for 1 h at RT followed by CY3-conjugated secondary antibody (1:1000) for 1 h at RT in the dark. Actin was stained with fluorescein-conjugated phalloidin (1:300). Hoechst (1:2500) was used to stain the nuclei. Coverslips were mounted onto slides using antifade medium from Life Technologies (Carlsbad, California, United States of America). Images were taken with a Zeiss Axiovert S100 microscope (Carl Zeiss; Thornwood, New York, United States of America).

C57BL/6 mice = assay: Toxicity experiment, I.P. injection; type: in vivo; details: 5 minutes to 24 hours
Procedure: (§1) ZCL 278 Toxicity Experiment: Individual C57BL/6 mice of 4-6 months of age from Jackson Laboratory (Bar Harbor, Maine, United States of America) were submitted to ZCL278 treatment for 5 minutes, 30 minutes, 2 hours and 24 hours. The dosage of ZCL278 for each mouse was 0.8 mg/g body weight delivered via intraperitoneal (I.P.) injection of a 15 mg/ml solution of ZCL278 was dissolved in the sesame oil (10% DMSO).
as §1, with “279” for “278”, “ZCL279” for “ZCL278”, “0.6” for “0.8”
ZCL367 Toxicity Experiment: Individual C57BL/6 mice of 4-6 months of age from Jackson Laboratory (Bar Harbor, Maine, United States of America) were submitted to ZCL367 treatment for 1 hour or 2 weeks. The dosage of ZCL367 for each time period was 0.4 mg/g body weight or 0.8 mg/g body weight, delivered via I.P. injection. […] Mice were sacrificed after end of 1 hour or 2 weeks.

Cdc42 = Cdc42 (Homo sapiens, UniProt P60953); assay: mant-GTP binding to Cdc42 with or without GEF/DH domain; type: biochemical; parameters: purchased Cytoskeleton Inc; details: 5-500 μM
Procedure: Cdc42 (1 μM) was incubated with mant-GTP (1.5 μM) and varying concentrations of ZCL278, ZCL279, or ZCL367 (5-500 μM). Fluorescent readings were taken every minute for 10 m to acquire the baseline. The GEF/DH domain (0.08-0.2 μM) was added followed by readings taken every minute for another 30 m. The linear phase was calculated from within the time period of 12-22 m. Cdc42 (1 μM) was incubated with mant-GTP (1.5 μM) and varying concentrations of ZCL278, ZCL279, or ZCL367 (5-500 μM). Fluorescent readings were taken every minute for 30 m to monitor the binding of mant-GTP in the absence of GEF/DH domain.

Chain of Cdc42 (P60953 whole entry, the tested form may be a part): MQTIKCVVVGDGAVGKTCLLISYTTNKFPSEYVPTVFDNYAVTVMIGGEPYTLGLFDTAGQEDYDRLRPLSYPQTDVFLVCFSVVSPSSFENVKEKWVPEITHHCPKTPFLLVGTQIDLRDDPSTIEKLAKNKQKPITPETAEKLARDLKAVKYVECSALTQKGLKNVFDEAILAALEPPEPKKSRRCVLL

For `Cc1cc(C)nc(NS(=O)(=O)c2ccc(NC(=S)NC(=O)COc3ccc(Br)cc3Cl)cc2)n1` [ZCL278, 4-(3-(2-(4-bromo-2-chloro-phenoxy)-acetyl)-thioureido)-N-(4,6-dimethylpyrimidin-2-yl)-benzenesulfonamide], the CR percentage (WT and 3×Tg-AD mice; WT mice) was “did not significantly change”, the “kind of morphology change” value (Swiss 3T3 cells; Swiss 3T3 cells) was “increase in ramification” and the bradykinin-mediated activation (Swiss 3T3 cells; Swiss 3T3 cells, bradykinin 100 ng/mL) was “inhibit bradykinin-mediated activation”. For the same molecule, the “changes to cell morphology” value (Swiss 3T3 cells) was “significant changes to cell morphology”, the “gross anatomic toxicity (plasma, liver, kidney and brain tissues)” value (C57BL/6 mice; 0.8 mg/g body weight I.P.) was “no gross anatomic toxicity” and the “effect on Cdc42 (mant-GTP binding)” value (Cdc42; in the absence of GEF domain) was “activates Cdc42”. For the same molecule, the “effect on Cdc42 (mant-GTP binding)” value (Cdc42; in the presence of GEF domain) was “acts as an inhibitor”.
With `O=S(=O)(Nc1ccccc1O)c1ccc2oc3ccc(S(=O)(=O)Nc4ccccc4O)cc3c2c1` [ZCL279, N^2,N^8-bis(2-hydroxyphenyl)dibenzo[b,d]furan-2,8-disulfonamide] the CR percentage (WT and 3×Tg-AD mice; AD mice, after 6 training sessions (control AD mice about 20%)) was “about 35%”, the CR percentage (WT and 3×Tg-AD mice; WT mice) was “did not significantly change” and the “kind of morphology change” value (Swiss 3T3 cells; Swiss 3T3 cells) was “reduction in cell body size and formation of elongated processes”. The “changes to cell morphology” value (Swiss 3T3 cells) was “significant changes to cell morphology”, the “gross anatomic toxicity (plasma, liver, kidney and brain tissues)” value (C57BL/6 mice; 0.6 mg/g body weight I.P.) was “no gross anatomic toxicity” and the “effect on Cdc42 (mant-GTP binding)” value (Cdc42; in the absence of GEF domain) was “has no effect”. The “effect on Cdc42 (mant-GTP binding)” value (Cdc42; in the presence of GEF domain) was “activates Cdc42”.
